Among the data in PubChem BioAssay (NCI) are TGI and GI50 values, retold here.

Test systems include MALME-3M melanoma; SR leukemia; SW-620 colon; UO-31 renal; HCC-2998 colon; MOLT-4 leukemia; HOP-62 NSCLC; UACC-62 melanoma; HS 578T breast; NCI/ADR-RES ovarian.
Holding throughout (assay): DTP human tumour cell line panel, 48 h

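Cultured in 96-well plates, cells were exposed to test compound for 48 hours across five concentrations. GI50 = concentration required for 50% inhibition of growth. The concentration for full growth arrest is given as TGI.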

A word on the TGI: it is the concentration at which net growth stops. Lower therefore signals greater sensitivity of the cells. Take `COc1ccc2c(=O)c(-c3cc(OC)c(OC)cc3OC)coc2c1`: the total growth inhibition concentration (TGI) is > 100 µM in the test with MALME-3M melanoma; > 100 µM with SR leukemia; > 100 µM in the test on SW-620 colon; > 100 µM in the test with UO-31 renal; > 63.9 µM in the test on HCC-2998 colon; > 100 µM in the test with MOLT-4 leukemia. In addition, the TGI with HOP-62 NSCLC and in the test on UACC-62 melanoma was > 100 µM throughout.
One may read the GI50 as the concentration at which growth is held to half of that of the control. In the case of `N#CC1=C(N)NC(=O)C(C#N)C12Nc1ccccc1S2` (stereo unspecified), the GI50 in the test on MALME-3M melanoma is 64 µM; in the test with SR leukemia, 52.4 µM; with SW-620 colon, > 100 µM; with HS 578T breast, 43.2 µM; in the test with UO-31 renal, > 100 µM; with MOLT-4 leukemia it was 95.8 µM. Also, the figures for the GI50 in the test on HOP-62 NSCLC, with NCI/ADR-RES ovarian and with UACC-62 melanoma were > 100 µM, 94.9 µM and 60.5 µM, respectively. For the same molecule, the total growth inhibition concentration (TGI) with MALME-3M melanoma, with SR leukemia, in the test on SW-620 colon, in the test with HS 578T breast, with UO-31 renal and in the test on MOLT-4 leukemia was > 100 µM throughout. Further, the total growth inhibition concentration (TGI) in the test with HOP-62 NSCLC, in the test with NCI/ADR-RES ovarian and in the test with UACC-62 melanoma was > 100 µM in each case.
On to `CC(C)(C)C1=CC(=N/N=c2\scc(-c3ccccc3)n2Cc2ccccc2)C=C(C(C)(C)C)C1=O`, for which the total growth inhibition concentration (TGI) in the test on MALME-3M melanoma, in the test on SR leukemia, in the test on SW-620 colon, in the test on UO-31 renal, with HCC-2998 colon and in the test on MOLT-4 leukemia was > 100 µM in each case. Moreover, the TGI in the test with HOP-62 NSCLC and in the test on UACC-62 melanoma was > 100 µM each time.
Take `COc1ccc2nc3cc(Cl)ccc3c(Sc3ccc(N)cc3)c2c1`: the total growth inhibition concentration (TGI) in the test on MALME-3M melanoma is 30.1 µM; in the test with SR leukemia, 11.4 µM; in the test with SW-620 colon it was 12.8 µM; with UO-31 renal it was 22.7 µM; with HCC-2998 colon, 25.1 µM; with MOLT-4 leukemia, 9.65 µM. The TGI in the test on HOP-62 NSCLC is 49.8 µM; in the test on UACC-62 melanoma it was 17.8 µM.
Take `Cc1nc(-n2nc(-c3ccccc3)cc2-c2ccccc2)sc1C(=O)CC(=O)C(=O)Nc1ccc(Cl)c(Cl)c1`: the total growth inhibition concentration (TGI) in the test with MALME-3M melanoma, in the test on SR leukemia, in the test on SW-620 colon, with UO-31 renal, with HCC-2998 colon and with MOLT-4 leukemia was > 100 µM in each case. The TGI with HOP-62 NSCLC and in the test on UACC-62 melanoma was > 100 µM throughout.
For `COC1CCCc2c(OC(C)=O)ccc(OC(C)=O)c21` (stereo unspecified), the total growth inhibition concentration (TGI) in the test on MALME-3M melanoma, in the test on SR leukemia, with SW-620 colon, with UO-31 renal, in the test with HCC-2998 colon and in the test with MOLT-4 leukemia was > 100 µM each time. The concentration for total growth inhibition (TGI) in the test on HOP-62 NSCLC and in the test with UACC-62 melanoma was > 100 µM in each case.
For the molecule `O=[N+]([O-])c1ccccc1/C=N\NC(=S)N/N=C/c1ccccc1[N+](=O)[O-]`, the GI50 is 2.87 µM in the test on SR leukemia; 4.29 µM in the test with SW-620 colon; 3.61 µM in the test on HS 578T breast; 5.66 µM in the test with UO-31 renal; 20 µM in the test with HCC-2998 colon; 6.47 µM in the test with MOLT-4 leukemia. The results for the GI50 in the test with HOP-62 NSCLC, in the test with NCI/ADR-RES ovarian and with UACC-62 melanoma were 5.57 µM, 2.66 µM and 4.52 µM, respectively. For the same molecule, the total growth inhibition concentration (TGI) in the test with SR leukemia was > 100 µM; in the test on SW-620 colon, > 100 µM; with HS 578T breast it was 33.6 µM; in the test with UO-31 renal, 87.3 µM; with HCC-2998 colon, > 100 µM; in the test with MOLT-4 leukemia, > 100 µM. For the same molecule, the TGI with HOP-62 NSCLC, in the test on NCI/ADR-RES ovarian and in the test on UACC-62 melanoma was > 100 µM throughout.
In the case of `O=[N+]([O-])c1ccc(Sc2cccc[n+]2[O-])c2nonc12`, the GI50 with MALME-3M melanoma is 2.09 µM; with SR leukemia, 0.703 µM; in the test on SW-620 colon it was 1.65 µM; in the test on HS 578T breast, 3.66 µM; in the test with UO-31 renal, 5.24 µM; in the test on HCC-2998 colon, 4.58 µM. For the same molecule, the values for the GI50 in the test on HOP-62 NSCLC, with NCI/ADR-RES ovarian and with UACC-62 melanoma were 28 µM, 5.73 µM and 4.58 µM, respectively. Moreover, the total growth inhibition concentration (TGI) with MALME-3M melanoma was 5.34 µM; in the test with SR leukemia it was > 100 µM; with SW-620 colon, 3.41 µM; with HS 578T breast it was 28.1 µM; with UO-31 renal it was 17.4 µM; in the test on HCC-2998 colon, 16.9 µM. For the same molecule, the TGI with HOP-62 NSCLC is > 56.4 µM; in the test on NCI/ADR-RES ovarian, > 52.7 µM; in the test on UACC-62 melanoma, 22.6 µM.
Consider `C=C1C(=O)OC2CC1C(OC(=O)/C=C/c1ccccc1)C/C(C)=C/CC/C(C)=C/CCC2(C)O` (stereo unspecified), for which the TGI with MALME-3M melanoma was 4.02 µM; with SR leukemia, > 21.6 µM; in the test on HS 578T breast it was 5.94 µM; with UO-31 renal, 3 µM; in the test with HCC-2998 colon, 3.12 µM; in the test with MOLT-4 leukemia, > 39.8 µM. Further, the TGI in the test on HOP-62 NSCLC came out at 3.23 µM; with NCI/ADR-RES ovarian, 9.4 µM; in the test on UACC-62 melanoma it was 4.51 µM.
Turning to `O=c1[nH]c2nc3ccccc3c(=O)n2nc1Cc1ccccc1`, the TGI in the test with MALME-3M melanoma, in the test on SR leukemia, in the test on SW-620 colon, in the test on UO-31 renal, in the test with HCC-2998 colon and in the test with MOLT-4 leukemia was > 100 µM throughout. Also, the TGI in the test with HOP-62 NSCLC and in the test with UACC-62 melanoma was > 100 µM throughout.
As to `O=C(c1ccccc1)c1nc2c(Cl)ccc(Cl)c2cc1C(Br)Br`, the TGI with MALME-3M melanoma is 5.66 µM; with SR leukemia, 13.1 µM; in the test on SW-620 colon it was 1.19 µM; in the test on UO-31 renal, 2.56 µM; in the test with HCC-2998 colon, 4.92 µM; with MOLT-4 leukemia, 7.13 µM. For the same molecule, the concentration for total growth inhibition (TGI) with HOP-62 NSCLC amounted to 3.11 µM; in the test with UACC-62 melanoma, 3.01 µM.
Regarding `O=S(=O)(F)Cc1ccccc1`, the TGI was 70 µM with MALME-3M melanoma; > 100 µM with SR leukemia; > 100 µM in the test with SW-620 colon; > 100 µM in the test with UO-31 renal; > 100 µM with HCC-2998 colon; > 100 µM in the test with MOLT-4 leukemia. In addition, the TGI in the test on HOP-62 NSCLC, in the test on NCI/ADR-RES ovarian and with UACC-62 melanoma was > 100 µM throughout.
Take `COc1ccc(-c2cc(=O)c3c(O)c(O)c(OC)cc3o2)cc1O`: the total growth inhibition concentration (TGI) with MALME-3M melanoma, with SR leukemia, in the test with SW-620 colon, in the test on UO-31 renal, in the test on HCC-2998 colon and in the test on MOLT-4 leukemia was > 100 µM each time. The TGI in the test on HOP-62 NSCLC and in the test on UACC-62 melanoma was > 100 µM throughout.
